Results taken from patent publication US20050282873A1, “Epothilone derivative for the treatment of hepatoma and other cancer diseases” (priority 2002, published 2005).

Legend:
Assay type in all cases: in vivo, human
advanced renal cancer = assay: Open-label, single-arm, two-stage multicenter efficacy study in patients with advanced renal cancer; settings: i.v. 2.5 mg/m2, 5 minute bolus infusion weekly for three weeks, one week off, trial ongoing
Description: An open-label, single-arm, two-stage multicenter study investigating the efficacy of 7,11-Dihydroxy-8,8,10,12,16-pentamethyl-3-[1-methyl-2-(2-methyl-thiazol-4-yl)-viny]-4,17-dioxa-bicyclo[14.1.0]heptadecane-5,9-dione administered intravenously at 2.5 mg/m2 as a 5 minute bolus infusion repeated every week for three weeks followed by one week off in patients with advanced renal cancer. 7,11-Dihydroxy-8,8,10,12,16-pentamethyl-3-[1-methyl-2-(2-methyl-thiazol-4-yl)-vinyl]-4,17-dioxa-bicyclo[14.1.0]heptadecane-5,9-dione is administered once every week for three weeks followed by a one-week drug holiday until either progression of disease or unacceptable toxicities occurs. Each four-week period is considered one cycle. Patients are evaluated for tumor response one week after their last dose of every other cycle, starting with Cycle 2. Patients may, at any time, have their dose reduced to 2.0 mg/m2 if in the investigators opinion the original dose is either intolerable or unsafe for any given patient, and without such a dose reduction the patient would be forced to withdraw from the study. All dose modifications are captured on the dose administration record CRF. The study period for efficacy evaluation is up to six cycles. The study will enroll patients with histologically confirmed transitional cell carcinoma of the kidney. […]

[1] = tested on: ovarian, primary Fallopian, or primary peritoneal cancer; assay: Open-label, single-arm, two-stage, multi-center efficacy study in ovarian, primary Fallopian or primary peritoneal cancer patients; settings: i.v. 2.5 mg/m2, 5 minute bolus infusion weekly for three weeks, one week off; patients failed or relapsed within six months of first-line taxane/platinum therapy; study ongoing
Description: An open-label, single-arm, two-stage, multi-center study investigating the efficacy of 7,11-Dihydroxy-8,8,10,12,16-pentamethyl-3-[1-methyl-2-(2-methyl-thiazol-4-yl)-vinyl]-4,17-dioxa-bicyclo[14.1.0]heptadecane-5,9-dione administered intravenously at 2.5 mg/m2 as a 5 minute bolus infusion repeated every week for three weeks followed by one week off in patients who have ovarian, primary Fallopian, or primary peritoneal cancer. […] Chemotherapies other than taxane/platinum or an additional agent to this regimen will not be allowed. […] A third therapeutic agent administered as part of the taxane/platinum therapy is permitted for refractory disease if all other criteria are met.

[2] = tested on: advanced colorectal cancer; assay: Open-label, single-arm, two-stage multicenter efficacy study in advanced colorectal cancer, once every three weeks; settings: i.v. 6.0 mg/m^2, 5 minute bolus infusion once every three weeks; colorectal cancer patients who failed fluoropyrimidine and Irinotecan or oxaliplatin; trial ongoing
Description: An open-label, single-arm, two-stage, multicenter study to investigate the efficacy of 7,11-Dihydroxy-8,8,10,12,16-pentamethyl-3-[1-methyl-2-(2-methyl-thiazol-4-yl)-vinyl]4,17-dioxa-bicyclo[14.1.0]heptadecane-5,9-dione administered intravenously at 6.0 mg/m^2 as a 5 minute bolus infusion repeated once every three weeks in patients with advanced colorectal cancer. 7,11-Dihydroxy-8,8,10,12,16-pentamethyl-3-[1-methyl-2-(2-methyl-thiazol-4-yl)vinyl]4,17-dioxa-bicyclo[14.1.0]heptadecane-5,9-dione is administered once every three weeks until either progression of disease or unacceptable toxicities occurs. Each three-week period is considered one cycle. Patients are evaluated for tumor response one week after the last dose of every third cycle, starting with Cycle 3. Patients may, at any time, have their dose reduced to 5.4 mg/m^2 or 4.8 mg/m^2 if in the investigator's opinion the original dose is either intolerable or unsafe for any given patient, and without such a dose reduction the patient will be forced to withdraw from the study. All dose modifications are captured on the Dose Administration Record CRF.
The study period for efficacy evaluation is up to nine cycles. […]

[3] = tested on: androgen-independent prostate cancer; assay: Open-label, single-arm, two-stage multicenter efficacy study in androgen-independent prostate cancer; settings: i.v. 2.5 mg/m^2, 5 minute bolus infusion weekly for three weeks, one week off; chemo-naïve or failed one prior chemotherapy; trial ongoing
Description: Open-label, single-arm, two-stage, multicenter study to investigate the efficacy of EPO906 administered intravenously at 2.5 mg/m^2 as a 5 minute bolus infusion once a week for three weeks followed by one week off in patients with androgen-independent prostate cancer who are chemo-naïve or who have failed one prior chemotherapy. 7,11-Dihydroxy-8,8,10,12,16-pentamethyl-3-[1-methyl-2-(2-methyl-thiazol-4-yl)-vinyl]-4,17-dioxa-bicyclo[14.1.0]heptadecane-5,9-dione is administered once every week for three weeks followed by a one-week drug holiday until either progression of disease or unacceptable toxicities occurs. Each four-week period is considered one cycle. Patients are evaluated for tumor response one week after their last dose of every other cycle, starting with Cycle 2. Patients may, at any time, have their dose reduced to 2.0 mg/m^2 if in the investigator's opinion the original dose is either intolerable or unsafe for any given patient, and without such a dose reduction the patient will be forced to withdraw from the study. All dose modifications are captured on the dose administration record CRF. The study period for efficacy evaluation is up to six cycles.
Patients taking PC-SPES must discontinue therapy for a minimum of 4 weeks. […]

[4] = tested on: advanced colorectal cancer; assay: Open-label, single-arm, two-stage multicenter efficacy study in advanced colorectal cancer, weekly regimen; settings: i.v. 2.5 mg/m2, 5 minute bolus infusion weekly for three weeks, one week off; colorectal cancer patients who failed fluoropyrimidine and Irinotecan or oxaliplatin; trial ongoing
Description: An open-label, single-arm, two-stage multicenter study to investigate the efficacy of 7,11-Dihydroxy-8,8,10,12,16-pentamethyl-3-[1-methyl-2-(2-methyl-thiazol-4-yl)vinyl]-4,17-dioxa-bicyclo[14.1.0]heptadecane-5,9-dione administered intravenously at 2.5 mg/m2 as a 5 minute bolus infusion repeated every week for three weeks followed by one week off in patients with advanced colorectal cancer. 7,11-Dihydroxy-8,8,10,12,16-pentamethyl-3-[1-methyl-2-(2-methyl-thiazol-4-yl)-vinyl-]-4,17-dioxa-bicyclo[14.1.0]heptadecane-5,9-dione is administered once every week for three weeks followed by a one-week drug holiday until either progression of disease or unacceptable toxicities occurs. Each four-week period is considered one cycle. Patients are evaluated for tumor response one week after their last dose of every other cycle, starting with Cycle 2. Patients may, at any time, have their dose reduced to 2.0 mg/m^2 if in the investigator's opinion the original dose is either intolerable or unsafe for any given patient, and without such a dose reduction the patient will be forced to withdraw from the study. All dose modifications are captured on the dose administration record CRF. The study period for efficacy evaluation is up to six cycles. […]

Compound: CC(=Cc1csc(C)n1)C1CC2OC2(C)CCCC(C)C(O)C(C)C(=O)C(C)(C)C(O)CC(=O)O1 (centres unmarked) [7,11-Dihydroxy-8,8,10,12,16-pentamethyl-3-[1-methyl-2-(2-methyl-thiazol-4-yl)-vinyl]-4,17-dioxa-bicyclo[14.1.0]heptadecane-5,9-dione]
- response of patients in the study (advanced renal cancer): Several patients show a positive response
- response of patients in the study [1]: Several patients show a positive response
- response of patients in the trial [2]: Several patients shown a positive response
- response of patients in the trial [3]: Several patients show a positive response
- response of patients in the trial [4]: Several patients shown a positive response
